Assay results reported in patent US20020084230A1, “Methods for screening drugs to predict tardive dyskinesia” (priority 1997, published 2002).

Experiments:
[1] = Hydrogen peroxide production assay (TCEP/DTNB, 96-well) in presence of Cu(II); conditions: for effect of chelating agent on hydrogen peroxide production by Vitamin C and antipsychotics: FIG. 7
Experimental: To determine whether antipsychotics themselves could be the source of peroxidation in TD, we measured hydrogen peroxide formation in vitro using a novel 96-well assay developed specifically for that purpose. The production of hydrogen peroxide is assayed by a modification of a published method (Han, J. C. and Han, G. Y., Anal. Biochem. 220:5-10 (1994); Han, J., et al., Anal. Biochem. 234:107-109 (1996)). […] Antipsychotics (10 μM) were assayed for hydrogen peroxide formation in PBS (pH 7.4) in the presence of 10 μM Cu(II).
Ten μM of antipsychotics and 10 μM of Cu(II) were co-incubated with 100 μM of a H2O2-trapping reagent, Tris(2-Carboxyethyl)-Phosphine Hydrochloride (TCEP), in PBS (pH 7.4) at 37° C. for 1 hour.

rats = experiment: Rodent model of vacuous chewing (TD model); type: in vivo, rat; conditions: 24 weeks treatment, 12 weeks withdrawal, FIG. 12
Experimental: There are two major animal models of TD. The first is a primate model of antipsychotic-induced dyskinesia. Ten to thirty percents of Cebus or Maccaca monkeys will develop clinical dyskinesia after long-term antipsychotic treatment. The second is a rodent model of vacuous chewing. In the rodent model, when the animals are treated with antipsychotics, they develop vacuous chewing, whic phenomenological similarities to the orobuccofacial movement of TD. Only 30-60% of rats will develop vacuous chewing. The chewing movement is enhanced after the withdrawal of antipsychotic treatment. […] (FIG. 12.)

SOD and catalase = conditions: rats, chronic treatment; cited from earlier work
tardive dyskinesia = conditions: patients with TD; cited from earlier work

Question: Which “effect of chelating agent on hydrogen peroxide production by Vitamin C and antipsychotics” value [1] does the source give for Cc1cc(-c2ccc(S(=O)(=O)O)cc2)c2ccc3c(-c4ccc(S(=O)(=O)O)cc4)cc(C)nc3c2n1 [bathocuproine disulfonate (BC), bathocuproine disulfonate] here?
Answer: The value was “significantly attenuate the production of hydrogen peroxide”.

Question: With CN1CCN(C2=Nc3cc(Cl)ccc3Nc3ccccc32)CC1 [clozapine] as the compound, how does the “induction of vacuous chewing” value (rats) read?
Answer: Its value is “only induce vacuous chewing in a small portion of the animals”.

Question: With OCCN1CCN(CCCN2c3ccccc3Sc3ccc(C(F)(F)F)cc32)CC1 [fluphenazine] as the compound, how does the “dependence of hydrogen peroxide generation on copper concentration” value ([1]; FIG. 6) read?
Answer: Its value is “dependent on the concentration of copper”.

Question: What about the “dependence of hydrogen peroxide generation on drug concentration” value ([1]; dose response, FIG. 5) of the same compound?
Answer: The value was “concentration dependent”.

Question: And the “SOD and catalase activities in the nervous system” value (SOD and catalase)?
Answer: The value was “cause a decrease in SOD and catalase activities”.

Question: Which “effect of chelating agent on hydrogen peroxide production by Vitamin C and antipsychotics” value [1] does the source give for NCCNCCNCCN [triethylenetetramine (TETA), triethylenetetramine] here?
Answer: The value was “significantly attenuate the production of hydrogen peroxide”.

Question: Which “effect on symptoms of TD” value (tardive dyskinesia) does the source give for Vitamin E here?
Answer: The value was “reverses the symptoms of TD”.
